# Measured values taken from patent US11566002B2, “Substituted tetrahydrocyclopenta[C]pyrroles, substituted dihydropyrrolizines, analogues thereof, and methods using same” (priority 2018, dated 2023).
# Tested on: HBV rcDNA
# Experiment: HepDE19 assay with bDNA quantitation of HBV rcDNA
# Type: cell-based, hepatitis B virus
# Settings: HepDE19 cells, Tet-free medium, 7 day-incubation, rcDNA measured by Quantigene 2.0 bDNA assay, top concentration 25 μM; read-out: DE-19 bDNA EC50
# Description: HepDE19 Assay with bDNA Quantitation of HBV rcDNA:
# HepDE19 cell culture system is a HepG2 (human hepatocarcinoma) derived cell line that supports HBV DNA replication and cccDNA formation in a tetracycline (Tet)-regulated manner and produces HBV rcDNA and a detectable reporter molecule dependent on the production and maintenance of cccDNA (Guo, et al., 2007, J. Virol. 81:12472-12484).
# HepDE19 (50,000 cells/well) were plated in 96-well collagen-coated tissue-culture treated microtiter plates in DMEM/F12 medium supplemented with 10% fetal bovine serum, 1% penicillin-streptomycin and 1 μg/mL tetracycline and incubated in a humidified incubator at 37° C. and 5% CO2 overnight. Next day, the cells were switched to fresh medium without tetracycline and incubated for 4 hours at 37° C. and 5% CO2. The cells were treated with fresh Tet-free medium with compounds at concentrations starting at 25 μM and a serial, ½ log, 8-point, titration series in duplicate. The final DMSO concentration in the assay was 0.5%. The plates were incubated for 7 days in a humidified incubator at 37° C. and 5% CO2. Following a 7 day-incubation, the level of rcDNA present in the inhibitor-treated wells was measured using a Quantigene 2.0 bDNA assay kit (Affymetrix, Santa Clara, Calif.) with HBV specific custom probe set and manufacturers instructions. Concurrently, the effect of compounds on cell viability was assessed using replicate plates, plated at a density of 5,000 cells/well and incubated for 4 days, to determine the ATP content as a measure of cell viability using the cell-titer glo reagent (CTG; Promega Corporation, Madison, Wis.) as per manufacturer's instructions. The plates were read using a Victor luminescence plate reader (PerkinElmer Model 1420 Multilabel counter) and the relative luminescence units (RLU) data generated from each well was calculated as % inhibition of the untreated control wells and analyzed using XL-Fit module in Microsoft Excel to determine EC50 and EC90 (bDNA) and CC50 (CTG) values using a 4-parameter curve fitting algorithm.
# Representative compounds of the invention were tested for their abilities to inhibit formation of relaxed circular DNA (rcDNA) in a HepDE19 assay, as described elsewhere herein.
row,Structure (SMILES),EC50 [µM]
1,"CCn1cc2c(c1C(=O)Nc1ccc(F)c(Cl)c1)CCC2NC(=O)OCc1ncn(C)n1 (single isomer, unassigned) [Compound 20, (1-Methyl-1H-1,2,4-triazol-3-yl)methyl (1-((3-chloro-4-fluorophenyl)carbamoyl)-2-ethyl-2,4,5,6-tetrahydrocyclopenta[c]pyrrol-4-yl)carbamate]",0.18
2,"Cn1c(C(=O)Nc2ccc(F)c(Cl)c2)c2c(c1C1CC1)C(NC(=O)OCc1nc[nH]n1)CC2 (single isomer, unassigned) [Compound 99, (1H-1,2,4-Triazol-3-yl)methyl (1-((3-chloro-4-fluorophenyl)carbamoyl)-3-cyclopropyl-2-methyl-2,4,5,6-tetrahydrocyclopenta[c]pyrrol-4-yl)carbamate]",0.33
3,"Cn1cnc(COC(=O)NC2CCc3c2c(C2CCC2)n(C)c3C(=O)Nc2ccc(F)c(Cl)c2)n1 (single isomer, unassigned) [Compound 97, (1-Methyl-1H-1,2,4-triazol-3-yl)methyl (1-((3-chloro-4-fluorophenyl)carbamoyl)-3-cyclobutyl-2-methyl-2,4,5,6-tetrahydrocyclopenta[c]pyrrol-4-yl)carbamate]",≥ 25
4,"Cn1c(Cl)c2c(c1C(=O)Nc1ccc(F)c(Cl)c1)CCC2NC(=O)OCc1cn[nH]n1 (single isomer, unassigned) [Compound 106, (2H-1,2,3-Triazol-4-yl)methyl (3-chloro-1-((3-chloro-4-fluorophenyl)carbamoyl)-2-methyl-2,4,5,6-tetrahydrocyclopenta[c]pyrrol-4-yl)carbamate]",1.4
5,"Cn1cc2c(c1C(=O)Nc1ccc(F)c(Cl)c1)CCC2NC(=O)OCc1ccccn1 (stereo not shown) [Compound 7, pyridin-2-ylmethyl(1-((3-chloro-4-fluorophenyl)carbamoy1)-2-methyl-2,4,5,6-tetrahydrocyclopenta[c]pyrrol-4-yl)carbamate]",1.4
6,"Cc1c2c(c(C(=O)Nc3ccc(F)c(Cl)c3)n1C)CCC2NC(=O)OCc1ncn(C)n1 (single isomer, unassigned) [Compound 82, (1-Methyl-1H-1,2,4-triazol-3-yl)methyl (1-((3-chloro-4-fluorophenyl)carbamoyl)-2,3-dimethyl-2,4,5,6-tetrahydrocyclopenta[c]pyrrol-4-yl)carbamate]",0.11
7,"Cn1cnc(COC(=O)NC2CCc3c2c(C2CC2)n(C)c3C(=O)Nc2ccc(F)c(Cl)c2)n1 (single isomer, unassigned) [Compound 90, (1-Methyl-1H-1,2,4-triazol-3-yl)methyl (1-((3-chloro-4-fluorophenyl)carbamoyl)-3-cyclopropyl-2-methyl-2,4,5,6-tetrahydrocyclopenta[c]pyrrol-4-yl)carbamate]",0.42
8,"Cn1c(Cl)c2c(c1C(=O)Nc1ccc(F)c(Cl)c1)CCC2NC(=O)OCc1nc[nH]n1 (single isomer, unassigned) [Compound 104, (1H-1,2,4-Triazol-3-yl)methyl (3-chloro-1-((3-chloro-4-fluorophenyl)carbamoyl)-2-methyl-2,4,5,6-tetrahydrocyclopenta[c]pyrrol-4-yl)carbamate]",1.9
9,"CCn1cc2c(c1C(=O)Nc1ccc(F)c(Cl)c1)CCC2NC(=O)OCc1ccn(C)n1 (single isomer, unassigned) [Compound 28, (1-Methyl-1H-pyrazol-3-yl)methyl (1-((3-chloro-4-fluorophenyl)carbamoyl)-2-ethyl-2,4,5,6-tetrahydrocyclopenta[c]pyrrol-4-yl)carbamate]",0.23
10,"Cn1cc2c(c1C(=O)Nc1ccc(F)c(Cl)c1)CCC2NC(=O)OCC#CC1CC1 (single isomer, unassigned) [Compound 115, 3-Cyclopropylprop-2-yn-1-yl (1-((3-chloro-4-fluorophenyl)carbamoyl)-2-methyl-2,4,5,6-tetrahydrocyclopenta[c]pyrrol-4-yl)carbamate]",5.4
11,"Cn1cc2c(c1C(=O)Nc1ccc(F)c(Cl)c1)CCC2NS(=O)(=O)C1CC1 (single isomer, unassigned) [Compound 13, N-(3-Chloro-4-fluorophenyl)-4-(cyclopropanesulfonamido)-2-methyl-2,4,5,6-tetrahydrocyclopenta [c]pyrrole-1-carboxamide]",6.8
12,"C#CCOC(=O)NC1CCc2c1cn(C)c2C(=O)Nc1ccc(F)c(Cl)c1 (single isomer, unassigned) [Compound 101, Prop-2-yn-1-yl (1-((3-chloro-4-fluorophenyl)carbamoyl)-2-methyl-2,4,5,6-tetrahydrocyclopenta[c]pyrrol-4-yl)carbamate]",1.6

# Same assay, conditions: Hepatitis B virus, HepDE19, 168 h, HepDE19 cells, Tet-free medium, 7 day-incubation, rcDNA measured by Quantigene 2.0 bDNA assay, top concentration 25 μM; read-out: DE-19 bDNA EC50
row,Structure (SMILES),EC50 [µM]
1,"Cn1cnc(COC(=O)NC2CCc3c2cn(C)c3C(=O)Nc2ccnc(C(F)F)c2)n1 (single isomer, unassigned) [Compound 81, (1-methyl-1H-1,2,4-triazol-3-yl)methyl (1-((2-(difluoromethyl)pyridin-4-yl)carbamoyl)-2-methyl-2,4,5,6-tetrahydrocyclopenta[c]pyrrol-4-yl)carbamate]",0.6
2,"Cn1cnc(COC(=O)NC2CCc3c2cn(C)c3C(=O)Nc2ccc(F)cc2)n1 (single isomer, unassigned) [Compound 65, (1-methyl-1H-1,2,4-triazol-3-yl)methyl (1-((4-fluorophenyl)carbamoyl)-2-methyl-2,4,5,6-tetrahydrocyclopenta[c]pyrrol-4-yl)carbamate]",0.81
3,"Cn1cc2c(c1C(=O)Nc1ccc(F)c(Cl)c1)CCC2NC(=O)OCc1ccn(C2CCCCO2)n1 (stereo not shown) [Compound 63, (1-(Tetrahydro-2H-pyran-2-yl)-1H-pyrazol-3-yl)methyl (1-((3-chloro-4-fluorophenyl)carbamoyl)-2-methyl-2,4,5,6-tetrahydrocyclopenta[c]pyrrol-4-yl)carbamate]",0.14
4,"Cn1cc2c(c1C(=O)Nc1ccc(F)c(Cl)c1)CCCC2N (single isomer, unassigned) [Compound 75, 4-Amino-N-(3-chloro-4-fluorophenyl)-2-methyl-4,5,6,7-tetrahydro-2H-isoindole-1-carboxamide]",2.1
5,"Cn1cc2c(c1C(=O)Nc1ccc(F)c(Cl)c1)CCC2NC(=O)OCc1nnnn1C (single isomer, unassigned) [Compound 145, (1-Methyl-1H-tetrazol-5-yl)methyl (1-((3-chloro-4-fluorophenyl)carbamoyl)-2-methyl-2,4,5,6-tetrahydrocyclopenta[c]pyrrol-4-yl)carbamate]",2.7
6,"Cn1c(C(=O)Nc2ccc(F)c(Cl)c2)c2c(c1C1CC1)C(NC(=O)OCc1nc[nH]n1)CC2 (stereo not shown) [Compound 95, (1H-1,2,4-triazol-3-yl)methyl (1-((3-chloro-4-fluorophenyl)carbamoy1)-3-cyclopropy1-2-methyl-2,4,5,6-tetrahydrocyclopenta[c]pyrrol-4-yl)carbamate]",15
7,"Cn1cc2c(c1C(=O)Nc1ccc(F)c(Cl)c1)CCC2=O [Compound 44, N-(3-chloro-4-fluorophenyl)-2-methyl-4-oxo-2,4,5,6-tetrahydrocyclopenta[c]pyrrole-1-carboxamide]",19
8,"Cn1cnc(COC(=O)NC2CCc3c2cn(C)c3C(=O)Nc2cc(F)c(F)c(F)c2)n1 (single isomer, unassigned) [Compound 71, (1-methyl-1H-1,2,4-triazol-3-yl)methyl (2-methyl-1-((3,4,5-trifluorophenyl)carbamoyl)-2,4,5,6-tetrahydrocyclopenta[c]pyrrol-4-yl)carbamate]",0.18
9,"Cn1cc2c(c1C(=O)Nc1ccc(F)c(Cl)c1)CCCC2NC(=O)OCc1nc[nH]n1 (single isomer, unassigned) [Compound 88, (1H-1,2,4-Triazol-3-yl)methyl (1-((3-chloro-4-fluorophenyl)carbamoyl)-2-methyl-4,5,6,7-tetrahydro-2H-isoindol-4-yl)carbamate]",0.51

# Same assay, conditions: read-out: DE-19 bDNA EC50; HepDE19 cells, Tet-free medium, 7 day-incubation, rcDNA measured by Quantigene 2.0 bDNA assay, top concentration 25 μM
row,Structure (SMILES),EC50 [µM]
1,"Cn1cnc(COC(=O)NC2CCc3c2c(-c2ccccc2)n(C)c3C(=O)Nc2ccc(F)c(Cl)c2)n1 (single isomer, unassigned) [Compound 108, (1-Methyl-1H-1,2,4-triazol-3-yl)methyl (1-((3-chloro-4-fluorophenyl)carbamoyl)-2-methyl-3-phenyl-2,4,5,6-tetrahydrocyclopenta[c]pyrrol-4-yl)carbamate]",5.2
